Patent publication US20010006966A1, “Use of 1- (aminoalkyl) -3-quinoxaline-2-on derivatives for the preparation of compounds having an antioxidant action” (priority 1998, published 2001)

Tests used:
[1] = human, in vivo
skin cancer = test: Prevention of skin cancer in UV-irradiated guinea pigs; assay type: in vivo; conditions: highly concentrated solution brushed on shaved neck; for cancer cells in tissue samples after two weeks of UV irradiation: UV-A, UV-B, UV-C at least two hours per day
Description: Use of 1-(aminoalkyl)-3-quinoxaline-2-on derivatives for preventing skin cancer in guinea pigs.
A group of six guinea pigs was shaved in the neck region and exposed to intensive UV irradiation over a period of at least two hours per day. The UV irradiation contained portions of both UV-A and UV-B and UV-C rays. A highly concentrated solution of Caroverine.hydrochloride was brushed on the shaved neck regions of four of the six guinea pigs prior to the commencement of the first irradation, wherein attention was paid to that the distribution was effected as uniform as possible and over all of the irradiated zone.

[2] = Treatment of patients suffering from type I allergy (hay fever); assay type: in vivo, human; conditions: 5 hay fever patients, tablet 150 mg three times a day
Description: 5 patients, 2 female and 3 male patients, suffering from type I allergy, namely hay fever, were treated with Caroverine at the occurrence of allergical primary reactions, i.e., sneezing, cervical irritations as well as rhinorrhea. They each received one tablet containing 150 mg Caroverine three times a day.
For comparative reasons, two patients were treated with usual antihistamines, wherein both the primary manifestations of the allergy and, in particular, the secondary manifestations could not be suppressed immediately and completely such that the patients were suffering from their disease hay fever substantially as long as straining by the causers, namely grass pollens, was maintained. Nor was it possible to discontinue the administration of the medicament as long as pollen flight was observed.

[3] = Speech and articulation capacity of a patient after a stroke; assay type: in vivo, human; conditions: 4×160 mg i.v. per day, 3 months, approximately 50% at beginning of treatment
Description: A patient suffering from serious speech impediments due to a stroke was intravenously administered Caroverine over a period of 3 months at an elevated dose of 4×160 mg Caroverine in physiological saline per day.

[4] = system: metabotropic group I glutamate receptors; test: Antagonism of metabotropic group I glutamate receptors in the ear of guinea pigs (behavior, ear electrodes); assay type: in vivo; conditions: 8 mg/kg into the vein of the ear
Description: Use of 1-(aminoalkyl)-3-quinoxaline-2-on derivatives as antagonists of the metabotropic group I glutamate receptors in the ear of guinea pigs.
A group of six guinea pigs was injected hydroxyphenyl glycerin as a receptor agonist into the ear, the receptor responding in a manner so as to strongly increase the auditory performance of the guinea pigs. […] Four of the six guinea pigs were subsequently injected a dose of 8 mg/kg body weight of the guinea pig into the vein of the ear and the behavior of the guinea pigs was observed. […] These behavioral peculiarities of the guinea pigs were also observed by applying electrodes to the ears of the animals, from whose measured data it could be readily read whether the exposure of the animals to unexpected noises caused excitement or not.

auditory nerve = test: Sound audiogram in patients with severe sudden loss of hearing / cochlear implant; assay type: in vivo, human
Description: By way of clinical examples, the efficacy of Caroverine (1-diethylaminoethyl-3-(p-methoxybenzyl)-1,2-dihydroquinoxaline-2-on) as a neuroregenerative substance was tested in two patients suffering from a severe sudden loss of hearing. In the enclosed diagram of FIG. 1, the sound audiogram of a patient is shown, the dot-and-dash line illustrating the sound audiogram after a sudden loss of hearing, the broken line illustrating the sound audiogram immediately upon commencement of the treatment, and the full line illustrating the patient's sound audiogram two weeks after the beginning of treatment, the patient over that period having been treated by the administration of an elevated dose of Caroverine. 240 mg Caroverine dissolved in 250 ml physiological saline were each slowly administered intravenously three times a day. […] A cochlear implant was not inserted.

facial nerve = test: Treatment of patients suffering from facial nerve paralysis; assay type: in vivo, human
Description: The neuroregenerative action of Caroverine was further investigated by way of two patients suffering from facial nerve paralysis. Two female patients suffering from a serious paralysis of the […] nerve were treated with Caroverine in the form of a combined cure over a period of 4 weeks, wherein, on the one hand, Caroverine was applied three times a day by intravenously administering 360 mg Caroverine each and the active substance, in addition, was administered in the form of a depot plaster containing 1000 mg Caroverine. The depot plaster was replaced once a week.

carcinoma of the colon = test: Patients with carcinoma of the colon, added to chemotherapy; assay type: in vivo, human; conditions: three patients; with Irinothekam and Oxaliplatine; day 1 i.v., other days 3×3 tablets a day
Description: Three patients aged between 19 and 75 and suffering from carcinoma of the colon were additionally administered Caroverine beside the usual chemotherapy with Irinothekam and Oxaliplatine for the four-week period of chemotherapy, the administration on day 1 having been effected at an elevated dose, i.e., intravenously in physiological saline, and on the other days by administering 3×3 tablets a day.

[5] = Treatment of patients suffering from periodic schizophrenia; assay type: in vivo, human
Description: 4 patients, two female and two male patients, aged between 40 and 50 and suffering from periodic schizophrenia were treated with elevated doses of Caroverine during massive attacks. […] The treatment time was 7 days, 14 days and 21 days, respectively.

[6] = Treatment of patients suffering from Alzheimer's disease; assay type: in vivo, human; conditions: three weeks
Description: By way of two male patients aged between 70 and 75 and suffering from Alzheimer's disease, the effect of Caroverine as a neuroregenerative substance was further investigated. The patients had average body weights of 75 kg and were in-patients. […] The time of treatment in each case was maintained for three weeks.

[7] = ABTA cation radical formation and reduction, photometric at 420 nm; assay type: biochemical
Description: (§1) In respect of the antioxidative effect of 1-(aminoalkyl)-3-quinoxaline-2-on derivatives and in respect of their radical interceptor properties, in vitro tests were carried out with Caroverine and the specific radical intercepting reagent 2,2′-azino-bis(3-ethylbenz)thiazoline-6-sulfonic acid (ABTA) in order to compare the radical interceptor property of Caroverine with that of ABTA. In the presence of highly reactive radicals, ABTA is oxidized to the stable thiazoline cation radical ABTA^+. The intensive green color of that radical was photometrically measured with a main absorption band at 420 nm. […] Caroverine reacted rapidly with free hydroxyl, peroxyl and ABTA cation radicals, as was shown in comparative studies with ABTA in the absence and in the presence of cerebral homogenate. The rate constant for the reaction with hydroxyl radicals was 0.4×10^10 M/l/s and that for peroxyl radicals was 0.5×10^10 M/l/s, as was realized by comparative kinetic studies with ABTA in the absence or in the presence of cerebral homogenate (FIG. 6). […] In doing so, ABTA cation radical formation and reduction were applied, as already mentioned, in order to examine the single electron transfer reactions, since that substance enables direct measurements of radical formation and radical reduction on account of its color.

[8] = system: metabotropic group I glutamate receptors; test: Microelectrodes on the auditory nerve of the narcotized animal; assay type: in vivo, guinea pigs
Description: Furthermore, the inhibiting influence of Caroverine on the metabotropic group I glutamate receptors was investigated on the narcotized animal by applying microelectrodes to the auditory nerve.

[9] = Comparative kinetic studies with ABTA, hydroxyl radicals; assay type: biochemical; conditions: absence or presence of cerebral homogenate
Description: as §1

HIV = HIV replication in macrophages derived from monocytes; assay type: cell-based
[10] = Comparative studies of antioxidant and radical interceptor property; assay type: biochemical
Description: wherein R is hydroxy, methoxy, ethoxy or hydrogen, or pharmaceutically acceptable salts thereof, for the preparation of compositions acting as antioxidants for preventing or treating diseases caused by free radicals of the oxygen cell metabolism, for stimulating the growth of nerve cells, antagonizing glutamate receptors and/or stimulating the growth of, in particular glutamatergic, nerve cells. […] Moreover, it has been shown in a surprising manner that specific 1-(aminoalkyl)-3-quinoxaline-2-on derivatives and, in particular, Caroverine are capable of antagonizing metabotropic glutamate receptors. Since glutamate receptors and, in particular, metabotropic glutamate receptors have been recognized as promoters or catalysts of intracellular metabolism, Caroverine and other 1-(aminoalkyl)-3-quinoxaline-2-on derivatives are capable of antagonizing, i.e., markedly retarding, in particular, that intracellular metabolism.
For that reason, Caroverine is supposed to be able to facilitate the repair of long-lived organic radicals and damaged biomolecules.

[11] = system: advanced head and throat tumors; test: Patients with advanced head and throat tumors, added to chemotherapy; assay type: in vivo, human; conditions: beside the regular chemotherapy
Ca2+ ion flux into cells = conditions: as stated in EP-A 0 032 564; cited from earlier work
[12] = Comparative kinetic studies with ABTA, peroxyl radicals; assay type: biochemical; conditions: absence or presence of cerebral homogenate
Description: as §1

nerve cells = test: In vitro tests for neuroregenerative effect; assay type: cell-based; conditions: low dosages, dosages known from the literature

## CCN(CC)CCn1c(=O)c(Cc2ccc(O)cc2)nc2ccccc21 [1-diethylaminoethyl-3-(p-hydroxybenzyl)-1,2-dihydroquinoxaline-2-on]
Assayed cells
  harmful side effects on the assayed cells: without harmful side effects
[1]
  harmful side effects in test animals and patients: without harmful side effects
Skin cancer
  cancer cells in tissue samples after two weeks of UV irradiation: identical result

## CCN(CC)CCn1c(=O)c(Cc2ccc(OC)cc2)nc2ccccc21 [Caroverine, 1-diethylaminoethyl-3-(p-methoxybenzyl)-1,2-dihydroquinoxaline-2-on]
[2]
  secondary manifestations of the allergic reactions (cervical rubor and the like): could be avoided
[2]; after two-day administration
  primary reactions (sneezing, rhinorrhea and the like): completely disappeared
[3]
  articulation capacity after the end of treatment (FIG. 4): 100%
[4]
  excitement upon unexpected noises, measured data of ear electrodes: excitement was effected not at all or only to an extremely slight extent
[4]; four of six guinea pigs
  behavior of guinea pigs upon noise after receptor agonist hydroxyphenyl glycerin: calmed down immediately
Auditory nerve; patient, 160 mg three times a day
  improvement of hearing performance (sound audiogram, FIG. 2), low doses: little significant
Auditory nerve; patient, 240 mg in 250 ml saline i.v. three times a day, two weeks
  hearing performance (sound audiogram, FIG. 1): marked increase in the hearing performance
Auditory nerve; patient, 240 mg/250 ml saline four times a day, two weeks, cochlear implant inserted
  hearing performance 0.125 to 2 kHz (sound audiogram, FIG. 2), high doses plus cochlear implant: nearly corresponds to the hearing performance of a healthy individual
Auditory nerve; patient, 300 mg in 500 ml saline each day, two weeks, no cochlear implant
  hearing performance 0.250 to 8 kH (sound audiogram, FIG. 3): essentially corresponds to the hearing performance of a healthy individual
Auditory nerve; simultaneous administration with cochlear implant
  audition of patients carrying cochlear implants: clearly enhancing the audition
Assayed cells
  harmful side effects on the assayed cells: without harmful side effects
Facial nerve; same regimen, extended period
  signs of facial paralysis on further extension of treatment: additional reductions of the paralytical signs
Facial nerve; two female patients, 360 mg i.v. three times a day plus depot plaster 1000 mg weekly
  signs of facial paralysis after 2 weeks: improvement in the signs of paralysis
Carcinoma of the colon
  colon carcinoma after four-week chemotherapy plus Caroverine: complete disappearance of the colon carcinoma
[5]; 400 mg infusion three times a day, 7, 14 or 21 days
  persistence of the improvement beyond the treatment time: only that patient whose treatment time was 21 days was successful even beyond the treatment time
[5]; 4 patients, 400 mg infusion three times a day, 7, 14 or 21 days
  behavior of schizophrenia patients during treatment: marked improvements in their behaviors
[5]; daily dose 240 mg or 400 mg Caroverine in combination with 10 mg Haloperidole
  behavior of schizophrenia patients, combination with Haloperidole: results analogous to those of the higher-dose administration of Caroverine
[5]; schizophrenia patients
  serious side effects usual with psychopharmacological agents (apathetic conditions, weight gains): could be avoided
[6]; 160 mg in 250 ml saline i.v. three times a day
  condition of Alzheimer patients, lower dose: not as pronounced and sustained
[6]; two male patients, 400 mg infusion three times a day
  condition of Alzheimer patients at end of treatment: marked improvement in the conditions
[7]; in the absence and in the presence of cerebral homogenate
  formation of the ABTA cation radical due to hydroxyl and peroxyl radicals (FIG. 5): able to inhibit the formation of the ABTA cation radical
[7]; in the presence and in the absence of cerebral homogenate
  ABTA cation radical reduction: catalyzes ABTA cation radical reduction
[7]; low, micromolar concentrations
  activity as an electron donor: highly active as an electron donor
[8]
  excitability of the metabotropic group I glutamate receptors: strongly suppressed
[9]
  rate constant for the reaction with hydroxyl radicals (FIG. 6): 0.4×10^10 M/l/s
HIV
  replication of HIV in macrophages derived from monocytes: markedly reduced
[10]
  effectiveness relative to the known antioxidants Ascorbate, Trolox and Glutathione: at least three times as effective
  radical interceptor property relative to Melatonine: reach that of Melatonine
[1]
  harmful side effects in test animals and patients: without harmful side effects
[11]
  complete disappearance of head and throat tumors: No complete disappearance of the tumors was feasible
  tumor size, head and throat tumors: reduction of the tumor size
Ca2+ ion flux into cells
  inhibition of the Ca2+ ion flux into cells: up to 50%
[12]
  rate constant for the reaction with peroxyl radicals (FIG. 6): 0.5×10^10 M/l/s
Nerve cells
  neuroregenerative effect: no neuroregenerative effect

## CCN(CC)CCn1c(=O)c(Cc2ccc(OC)cc2)nc2ccccc21.Cl [Caroverine.hydrochloride]
Skin cancer
  skin injuries after two weeks of UV irradiation: some reddening of the skin
  cancer cells in tissue samples after two weeks of UV irradiation: no cancer cells could be detected
